This is an account of results in US20230390273A1, “4-PHENYL-TETRAHYDROPYRIDINE DERIVATIVES FOR TREATING HEARING DISEASES” (CILCARE DEV, priority 2021, published 2023).

Structures can show the parent of a compound that is named as a salt. Where two headings read alike, the source gives them in different places.

A short description of data set [1]: Plasma and inner ear fluid exposure after single trans-tympanic injection in lipid-based mucoadhesive solution (Example 3). The data set is classed as in vivo, male Wistar rats. The conditions noted are these: for concentration at 1 h: T0 + 1 hour; for concentration at 24 h: T0 + 24 hours; for High concentrations rapidly reached in the IEF (molar) / High concentrations rapidly reached in the inner ear fluid: trans-tympanic injection; for High concentrations rapidly reached in the IEF (molar): approximate conversion; for High concentrations rapidly reached in the inner ear fluid: summary. The procedure: Composition 7P and composition 7X as described in example 2 were administered to male Wistar rats (5 animals per active agent and timepoint), as described below.
At time T0, 30 μL of composition 7P were administered to 15 rats, in a single ear via trans-tympanic injection. The dose of paliroden fumarate that has been administered is thus of 243 μg in one ear of each rat.
At time T0, 30 μL of composition 7X were administered to 15 other rats, in a single ear via trans-tympanic injection. The dose of xaliproden hydrochloride that has been administered is thus of 181.2 μg in one ear of each rat.
For the 15 rats that have received composition 7P and for the 15 rats that have received composition 7X, plasmatic and inner ear expositions were determined via blood and cochlea terminal sampling in order to achieve lithium-heparin plasma and inner ear fluid preparation, at T+1 hour, T+24 hours and T+168 hours. Bioanalytical methods were validated in both matrices (lithium heparin plasma and inner ear fluid) with a range of 0.2 to 815 ng/mL for paliroden (fumarate salt) and 0.2 to 763 ng/mL for xaliproden (hydrochloride salt).

Data set [2] concerns synaptic ribbons in inner hair cells. Description: Ribbon synapse immunostaining and counting in cochlea (Example 8). It counts as in vivo, male CBA/CaJ mice. The procedure:
At T+35 days, after DPOAE/ABR measures, all cochlea (four (4) left cochleae and four (4) right cochleae) per group were rapidly sampled and immediately fixed by PFA perfusion (through the round and oval windows with PFA 4% after creating a small hole at the apex) in order to performed ribbon synapse immunostaining and analysis. Cochleae were fixed for 1 hour in a 4% PFA solution and decalcified in undiluted RDO (10 mL/cochlea for a minimum of 2 hours). The membranous and sensory spiral containing the organ of Corti are dissected out as a flat surface preparation under a dissecting microscope and immunolabelled with appropriate antibodies: • Vglut3 (Vglut3-Guinea Pig IgG; #135 204, Synaptic systems and Anti-Guinea Pig IgG (H+L), #A21450; Thermo Fisher Scientific 647 nm Far-Red) to stain inner hair cell bodies (vesicular glutamate transporter). • Homer (Homer-Rabbit IgG; #GTX103278; Genetex and Anti-Rabbit IgG (H+L) #A11008 Thermo Fisher Scientific 568 nm Red) to stain dendritic proteins of auditory nerve fibers connecting to IHC (post-synaptic). • CtBP2 (CtBP2-Mouse-IgG1; #612044; BD Transduction Laboratories and Anti-Mouse IgG1, #A21121, Thermo Fisher Scientific 488 Green) to stain the ribeye protein as pre-synaptic marker in IHC. • Phalloidin (Alexa Fluor™ Plus 405 Phalloidin; #A30104; Thermo Fisher Scientific 405 Blue).
Images were acquired on a confocal microscope and the slides were analyzed to i) evaluate by visual observation the presence of OHC and IHC (based on nuclei staining with CtBP2 and HC cell body staining with phalloidin) and ii) count the number of synaptic ribbons in selected inner hair cells in cochlea regions coding sound of selected frequency (25, 32 and 45 kHz).
The number of pre- (CtBP2) and post-synaptic (Homer) labeled spots was counted using Imaris software in 3 dimensions for each image. Co-localization of pre- and post-synaptic elements was defined as a distance of maximum […] between CtBP2- and Homer-labeled spots, using an in-house Matlab program to calculate the distances between CtBP2 and Homer labels from the x, y, and z coordinates.

In another data set the test system is male CBA/CaJ mice. The data set is described as follows: ABR Wave I amplitude after noise-induced temporary hearing loss (Example 8). It counts as in vivo. On the procedure:
Twelve male CBA/CaJ mice were selected and evenly distributed to treatment and control groups, each group comprising 4 mice at the end of the study. Randomization was performed using the ABR threshold in the left ear at 16 kHz as a criterium. The “sham” group consists in mice (n=4) that received neither noise exposure nor trans-tympanic injection. The “Traumatized” group consists in mice (n=4) that received noise exposure only. The “traumatized paliroden” group consists in mice (n=4) that received noise exposure and trans-tympanic injections of a composition comprising paliroden (fumarate salt), corresponding to composition 4P described in Example 2.
All animals (except sham group) received a bilateral noise exposure at a noise band of 8-16 kHz at 95 dB SPL RMS during 2 hours (from time T0 to time T0+2 hours) in awake conditions.
Five microliters of a composition comprising paliroden as active agent were administered once in both ears of each mice of the treatment groups (5 μL per ear) via trans-tympanic administration by injection between the eardrum and the round window by means of a needle which crosses the eardrum, 24 hours post noise exposure, under isoflurane anesthesia. […]

Setting [3] is: male, Wistar, other: trans-tympanic injection, rat inner ear fluid, trans-tympanic 243 μg, read-out: Concentration of paliroden (fumarate salt), IEF, Mean.
Where [4] appears, read: male, Wistar, plasma, other: trans-tympanic injection, rat, trans-tympanic 243 μg one ear, read-out: Concentration of paliroden (fumarate salt), Plasma, Mean.
The mark [5] stands for this setting: male, Wistar, other: trans-tympanic injection, rat inner ear fluid, trans-tympanic 181.2 μg, read-out: Concentration of xaliproden (hydrochloride salt), IEF, Mean.
[6] abbreviates: male, Wistar, plasma, other: trans-tympanic injection, rat, trans-tympanic 181.2 μg one ear, read-out: Concentration of xaliproden (hydrochloride salt), Plasma, Mean.

In the case of `FC(F)(F)c1cccc(C2=CCN(CCc3ccc(-c4ccccc4)cc3)CC2)c1` [paliroden (fumarate salt), 1-[2-(4-biphenylyl)ethyl]-4-(3-trifluoromethylphenyl)-1,2,3,6-tetrahydropyridine], in data set [1] (setting [3]), the concentration at 1 h was found to be 5100 ng/mL and the concentration at 24 h turned out to be 3.2 ng/mL. Moreover, in data set [1] (setting [4]), the concentration at 1 h came to 0.9 ng/mL and the concentration at 24 h is 1.7 ng/mL. The “Concentration of paliroden (fumarate salt), IEF, Mean” value in data set [1] (rat inner ear fluid, trans-tympanic 243 μg, T0 + 168 hours) was “BLQ”. In addition, in data set [1] (rat, trans-tympanic 243 μg one ear, T0 + 168 hours), the “Concentration of paliroden (fumarate salt), Plasma, Mean” value is “BLQ”. Further, in data set [1] (rat), the “High concentrations rapidly reached in the IEF (molar)” value is “approximately 10 μM” and the “High concentrations rapidly reached in the inner ear fluid” value is reported as “approximately 5000 ng/mL”. For the same compound, the “Number of colocalized ribbons per IHC” value in data set [2] (25 kHz to 40 kHz, not statistically different to sham) was “intermediate between traumatized and control mice”. Further, the “Number of pre-synaptic and post-synaptic elements (CtBP2 and Homer) per IHC” value in data set [2] (32 kHz, vs traumatized untreated, paliroden 50 μg/ear one day post-noise, subset) is “tended to increase”. Moreover, the “Colocalized ribbons per IHC” value in data set [2] (32 kHz, vs traumatized untreated, paliroden 50 μg/ear, subset) is given as “increase”. In the data set with male CBA/CaJ mice (5 weeks post-noise, 16, 25, 32, 40, 45 kHz, paliroden 50 μg/ear one day post-noise), the “Recovery of the ABR Wave I amplitudes” value is “complete recovery”. The “ABR Wave I amplitude recovery in comparison to traumatized untreated mice, subset analysis” value in the data set on male CBA/CaJ mice (25, 32, 40 and 45 kHz, p values <0.001) was “statistically significant”.

For `FC(F)(F)c1cccc(C2=CCN(CCc3ccc4ccccc4c3)CC2)c1` [xaliproden (hydrochloride salt), 1-[2-(2-naphthyl)ethyl]-4-(3-trifluoromethylphenyl)-1,2,3,6-tetrahydropyridine], in data set [1] (setting [5]), the concentration at 1 h was 2510 ng/mL and the concentration at 24 h stood at 74.3 ng/mL. Also, in data set [1] (setting [6]), the concentration at 1 h was found to be 4.4 ng/mL and the concentration at 24 h came out at 5.2 ng/mL. Further, the concentration at 168 h in data set [1] (male, Wistar, plasma, other: trans-tympanic injection, rat, trans-tympanic 181.2 μg one ear, T0 + 168 hours, read-out: Concentration of xaliproden (hydrochloride salt), Plasma, Mean) was determined as 0.5 ng/mL. For the same compound, the “Concentration of xaliproden (hydrochloride salt), IEF, Mean” value in data set [1] (rat inner ear fluid, trans-tympanic 181.2 μg, T0 + 168 hours) was “BLQ”. For the same compound, in data set [1] (rat), the “High concentrations rapidly reached in the IEF (molar)” value is approximately 5 µM and the “High concentrations rapidly reached in the inner ear fluid” value is given as approximately 2500 ng/mL.
